Results reported in PMC10609873, “Antidiabetic, Antihyperlipidemic, and Antioxidant Evaluation of Phytosteroids from Notholirion thomsonianum (Royle) Stapf” (Plants, 2023).
Converted amounts (≈) assume the structure as drawn.

What was measured:
[1] = system: alloxan-induced diabetic rats; test: renal and liver function tests (biochemical profile of blood); settings: NtSt01 1.0 mg/kg, standard glibenclamide; for S.Creatinine: reference range 0.4–0.8; for SGPT(ALT): reference range 17–30; for S.ALK.Phosphatase: reference range 30–130; for S.bilurubin: reference range up to 1.0
Description: Renal functions tests were performed to determine blood urea and serum creatinine [38]. To determine blood urea, enzyme reagent 1 (1000 µL) and 10 µL of serum were mixed together and incubated for 5 min at 25 °C, followed by the addition of 1000 µL of reagent 2 to the mixture. After 5 min, the absorbance was recorded at 578 nm.
Serum glutamate pyruvate transaminase (SGPT/ALT), alkaline phosphatase (ALP), and bilirubin tests were performed following standard protocols using micro lab 300 and tecno plus biochemistry analyzers [39]. To perform the SGPT/ALT test, 50 µL of serum sample was added to 500 µL of reagent (400 µL of reagent 1 and 100 µL of reagent 2). […] To determine ALP, a kit was used following the manufacturer’s specifications: 10 µL of serum sample was added to 500 µL of reagent (400 µL of reagent 1 and 100 µL of reagent 2). […] Similarly, the concentration of bilirubin was evaluated using standard protocols. Four types of reagents, R1, R2, R3, and R4, were used in this test. R2 (25 µL) was added to R1 (100 µL). After this, 100 µL of serum sample and 500 µL of R3 were added and allowed to stand at 25 °C for 5 min. Then, 500 µL of R4 was added; at 25 °C for 5 min, the mixture was incubated. The absorbance of the sample was recorded at 546 nm.

[2] = system: alloxan-induced diabetic rats; test: lipid profile (antilipidemic effect); assay type: in vivo; settings: NtSt01 1.0 mg/kg, glibenclamide 0.5 mg/kg; for LDL / S.Cholesterol: reference range 10–54; for S.Triglycerides: reference range 26–145; for HDL: reference range up to 50
Description: Standard methods were used for the analysis of total cholesterol, serum triglycerides, low-density lipoprotein (LDL), and high-density lipoprotein (HDL). Briefly, […] of serum sample was added to […] solution of triglyceride. The mixture was incubated for 10 min at 37 °C and the absorbance was recorded at 546 nm. To monitor blood cholesterol, diagnostic kits were utilized following the specifications of the manufacturer. […] For HDL concentration determination, 200 µL of serum sample and 500 µL of HDL solution were combined, and the mixture was allowed to stand at room temperature for 5 min. Again, the mixture was mixed and subjected to further centrifugation for 5 min, followed by supernatant collection. Then, 50 µL of supernatant of HDL was added to 500 µL of solution of cholesterol; the mixture was incubated at 37 °C for 5 min. Then, at 546 nm, the sample absorbance was measured. Similarly, LDL was determined in all groups following the manufacturer’s specifications. LDL = Total cholesterol […] − Triglycerides/5(4)

α-amylase = test: in vitro α-amylase inhibition; assay type: biochemical
Description: The inhibitory activity of our compounds against alpha-amylase enzymes was determined as per the previously reported protocols. Test samples of 100 µL were mixed with an enzyme solution (200 µL) and 100 µL of phosphate buffer (pH 6.9, 2 mM). The mixture was then incubated at 25 °C for 20 min, followed by the addition of 100 µL of starch solution (1%). The same procedure was followed for positive controls, where phosphate buffer was added instead of […] (200 µL). After 5 min of incubation, 3,5-dinitrosalicylic acid reagent (500 µL) was added to the test samples and control group. The mixtures were incubated again for 10 min; at 580 nm, the absorbance was recorded using a spectrophotometer. The alpha-amylase percent inhibition was calculated as:(2) % Amylase inhibition=1−Test sample abs./Control abs.×100

[3] = DPPH free radical scavenging assay
Description: To evaluate the antioxidant potential of our compounds, the DPPH free radical scavenging assay developed by Brand William was used. The DPPH solution was made by dissolving 20 mg of DPPH in 100 mL of methanol, and its absorbance at 517 nm was adjusted to 0.75. Then, 2 mL of DPPH solution was added to 2 mL of sample dilutions ranging from 31.25 to 500 µg/mL, and the mixture was incubated at room temperature in the dark for 15 min. […] (3) % Inhibition=Control abs.−Sample abs./Control abs.×100

rats = test: acute toxicity study in rats; assay type: in vivo; settings: dose started at 200 and increased up to 2000 mg/kg body weight
Description: In experimental animals, acute toxicity studies were performed to determine the safe dose of our test compounds for in vivo studies.

[4] = system: alloxan-induced diabetic rats; test: vital organ weights of fasting rats after treatment; assay type: in vivo; settings: after the 28-day experiment; NtSt01 1.0 mg/kg, glibenclamide 0.5 mg/kg
Text: The experimental rats were purchased from the Breeding House of National Institute Health, Islamabad, Pakistan. The average weights of these rats ranged from 220 to 250 g. The animals were handled as per the guidelines of the University of […] animals By-Laws 2008 (Scientific Procedure Issue I) under the approval of the ethical committee via letter No. DREC-140/B. The food, water, and light/dark cycles provided to animals were observed by the ethical committee. The animals were euthanized as per the AVMA guidelines version 2020. The animals were subjected to slow exposure of halothane vapors to induce anesthesia. There was a gradual increase in the dosage of halothane vapors, which eventually euthanized the animals. […] Group 3: […] Group 4: […]

α-glucosidase = α-glucosidase (Saccharomyces cerevisiae, UniProt P53341); test: in vitro α-glucosidase inhibition; assay type: biochemical
α-glucosidase, sequence (P53341 whole entry): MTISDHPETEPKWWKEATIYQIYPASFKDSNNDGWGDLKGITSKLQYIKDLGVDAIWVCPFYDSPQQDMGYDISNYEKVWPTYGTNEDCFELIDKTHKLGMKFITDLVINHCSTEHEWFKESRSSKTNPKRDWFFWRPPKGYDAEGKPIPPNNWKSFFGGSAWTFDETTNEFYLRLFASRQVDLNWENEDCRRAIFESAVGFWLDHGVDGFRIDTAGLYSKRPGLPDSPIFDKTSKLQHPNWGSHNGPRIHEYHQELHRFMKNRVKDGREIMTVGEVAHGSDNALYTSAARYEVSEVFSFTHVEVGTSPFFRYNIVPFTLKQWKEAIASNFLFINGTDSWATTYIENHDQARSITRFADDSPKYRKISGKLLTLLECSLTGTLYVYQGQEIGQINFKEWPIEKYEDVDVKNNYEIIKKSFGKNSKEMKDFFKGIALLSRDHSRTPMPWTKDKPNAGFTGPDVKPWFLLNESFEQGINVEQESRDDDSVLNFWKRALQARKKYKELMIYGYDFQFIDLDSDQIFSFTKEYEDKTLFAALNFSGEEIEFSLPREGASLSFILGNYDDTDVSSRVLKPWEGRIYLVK
Description: The alpha-glucosidase inhibitory effects of our compounds were determined via a reported protocol. Sample dilutions (50 µL) and 100 µL of α-glucosidase solution (0.5 U/mL) were mixed. Then, 600 μL of phosphate buffer (0.1 M, pH 6.9) was added, and the mixture was incubated at 37 °C for 15 min. After this, 5 mM substrate (p-nitrophenyl α-D-glucopyranoside) solution (20 µL) in 0.1 M phosphate buffer (pH 6.9) was added and again incubated under the same conditions. Sodium carbonate was added to stop the reaction; at 405 nm, the absorbance was noted using a spectrophotometer. A mixture without α-glucosidase served as the blank, and a mixture without the test compound served as the control. The percent enzyme inhibition was calculated as:(1) % Alpha glucosidase inhibition=Control abs.−Sample abs./Control abs.×100

[5] = system: alloxan-induced diabetic rats; test: body weight of fasting rats during treatment; assay type: in vivo; settings: NtSt01 1.0 mg/kg, glibenclamide 0.5 mg/kg
Description: Group 3: This group was the alloxan-induced diabetic group, which was treated with 0.5 mg/kg of the standard drug, glibenclamide.
Group 4: This group was the alloxan-induced diabetic group, which was treated with 1.0 mg/kg of NtSt01 intraperitoneally.

SMILES | S.Creatinine [1] [mg/dL] | SGPT(ALT) [1] [U/L] | S.ALK.Phosphatase [1] [U/L] | S.bilurubin [1] [mg/dL] | LDL [2] | S.Cholesterol [2] | S.Triglycerides [2] | HDL [2] | Percent Inhibition (Mean ± SEM) (α-amylase; 31.25 μg/mL) [%] | Percent Inhibition (Mean ± SEM) (α-amylase; 62.50 μg/mL) [%] | Percent Inhibition (Mean ± SEM) (α-amylase; 125 μg/mL) [%] | Percent Inhibition (Mean ± SEM) (α-amylase; 250 μg/mL) [%] | Percent Inhibition (Mean ± SEM) (α-amylase; 500 μg/mL) [%] | IC50 (α-amylase; α-amylase) [µg/mL] | IC50 [3] [µg/mL] | Percent Inhibition (Mean ± SEM) ([3]; 31.25 μg/mL) [%] | Percent Inhibition (Mean ± SEM) ([3]; 62.50 μg/mL) [%] | Percent Inhibition (Mean ± SEM) ([3]; 125 μg/mL) [%] | Percent Inhibition (Mean ± SEM) ([3]; 250 μg/mL) [%] | Percent Inhibition (Mean ± SEM) ([3]; 500 μg/mL) [%] | also measured
CCC(C=CC(C)C1CCC2C3C=CC4=CC(OC(C)=O)CCC4(C)C3CCC12C)C(C)C (stereo not drawn) [NtSt01, 3-β-Acetoxystigmasta-4,6,22-triene] | 0.6 ± 0.02 | 32 ± 0.25 | 134 ± 2.33 | 0.72 ± 0.77 | 48.85 ± 1.08 | 77.45 ± 1.72 | 125 ± 3.65 | 38.10 ± 1.64 | 62.35 ± 1.78 | 67.63 ± 2.51 | 71.63 ± 0.92 | 75.52 ± 0.96 | 80.03 ± 2.11 | 4.17 (≈ 9.21 µM) | 142.76 (≈ 315 µM) | 37.25 ± 2.66 | 42.53 ± 0.69 | 47.08 ± 2.41 | 55.79 ± 0.92 | 61.05 ± 2.05 | potency relative to NtSt02 (from IC50 values) (α-amylase; α-amylase): eleven folds more potent than NtSt02; acute toxicity observation (rats): safe and no morbidity, mortality or irritation was observed; Heart weight [4]: 1.04 ± 0.13 g; Kidney weight [4]: 1.01 ± 0.15 g; Liver weight [4]: 9.83 ± 0.92 g; Pancreas weight [4]: 0.92 ± 0.12 g; potency relative to NtSt02 (from IC50 values) (α-glucosidase; α-glucosidase): three times more potent than NtSt02; body weight ([5]; Day 1): 238 ± 0.33 g; body weight ([5]; Day 7): 240 ± 0.49 g; body weight ([5]; Day 14): 242 ± 1.04 g; body weight ([5]; Day 21): 245 ± 1.11 g; body weight ([5]; Day 28): 246 ± 0.11 g
CC(C)CCC[C@@H](C)[C@H]1CC[C@H]2[C@@H]3C=CC4=C[C@@H](OC(=O)c5ccccc5)CC[C@]4(C)[C@H]3CC[C@]12C [NtSt02, 4,6-cholestadien-3beta-ol, benzoate] |  |  |  |  |  |  |  |  | 46.84 ± 0.67 | 53.10 ± 2.05 | 60.04 ± 0.86 | 64.32 ± 1.85 | 74.99 ± 1.53 | 46.73 (≈ 95.6 µM) | 223.43 (≈ 457 µM) | 28.52 ± 2.63 | 33.08 ± 1.17 | 42.99 ± 2.70 | 52.01 ± 1.07 | 59.12 ± 1.96 | 
COc1ccc(Cl)cc1C(=O)NCCc1ccc(S(=O)(=O)NC(=O)NC2CCCCC2)cc1 [Glibenclamide, glibenclamide, reference compound] | 0.43 ± 0.01 | 37 ± 1.11 | 125 ± 1.22 | 0.81 ± 0.03 | 34.16 ± 2.66 | 59.98 ± 0.99 | 112 ± 0.99 | 32.55 ± 2.35 |  |  |  |  |  |  |  |  |  |  |  |  | Heart weight [4]: 0.90 ± 0.02 g; Kidney weight [4]: 0.99 ± 0.16 g; Liver weight [4]: 9.21 ± 0.66 g; Pancreas weight [4]: 0.84 ± 0.21 g; body weight ([5]; Day 1): 235 ± 1.36 g; body weight ([5]; Day 7): 236 ± 1.37 g; body weight ([5]; Day 14): 239 ± 0.67 g; body weight ([5]; Day 21): 244 ± 2.38 g; body weight ([5]; Day 28): 249 ± 3.18 g
C[C@H]1O[C@H](O[C@H]2[C@H](O)[C@@H](O)[C@@H](O[C@H]3[C@H](O)[C@@H](O)C(O)O[C@@H]3CO)O[C@@H]2CO)[C@H](O)[C@@H](O)[C@@H]1N[C@H]1C=C(CO)[C@@H](O)[C@H](O)[C@H]1O (stereo partly drawn) [acarbose, reference compound] |  |  |  |  |  |  |  |  |  |  |  |  | 91.01 ± 1.36 |  |  |  |  |  |  |  | Percent Inhibition (Mean ± SEM) (α-glucosidase): 92.65 ± 0.55%
